Test results published in US6780863B1, “Bis-basic compounds with tryptase-inhibitory activity” (Boehringer Ingelheim Pharma GmbH & Co. KG, priority 1999, dated 2004).

molecular target: T1, rh beta tryptase (Homo sapiens, UniProt Q15661); experiment: tryptase inhibition test (cleavage of N-p-tosyl-Gly-Pro-Lys-para-nitroaniline, p-nitroaniline measured at 405 nm); assay type: biochemical; conditions: Tris HCl buffer pH 7.4 with calcium and heparin; substrate 0.6 mM; 5 min pre-incubation, 5 min incubation, 37° C.
T1 construct: purchased Promega
T1 sequence (Q15661 31-275): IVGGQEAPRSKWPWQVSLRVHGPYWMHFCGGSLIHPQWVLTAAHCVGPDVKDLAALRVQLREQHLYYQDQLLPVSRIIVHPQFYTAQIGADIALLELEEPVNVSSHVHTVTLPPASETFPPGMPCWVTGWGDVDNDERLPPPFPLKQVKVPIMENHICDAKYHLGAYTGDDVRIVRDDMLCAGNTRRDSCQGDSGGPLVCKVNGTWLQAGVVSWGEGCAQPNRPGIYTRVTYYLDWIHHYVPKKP
Protocol: The compounds according to the invention are characterised by their tryptase-inhibiting activity. This ability to inhibit tryptase was investigated using the test described below.
The measurement is carried out in Tris HCl buffer (100 mM), which additionally contains calcium (5 mM) and heparin (100 mg/ml), at pH 7.4. The standard used is rh beta tryptase which may be obtained commercially from Promega, for example. The substrate used is N-p-tosyl—Gly-Pro-Lys-para-nitroaniline in a concentration of 0.6 mM. The substrate is digested with tryptase to form p-nitroaniline which can be measured at 405 nm. Usually, an incubation period of 5 minutes and an incubation temperature of 37° C. are chosen. The enzyme activity used is 0.91 U/ml. The measurements are carried out in an Autoanalyser (Cobas Bio) made by Hofmann LaRoche. The potential inhibitory substances are used in concentrations of 10 μM in the screening, the inhibition of the tryptase being given in percent. The IC50 (concentration at which 50% of the enzyme activity is inhibited) is determined at over 70% inhibition. After 5 minutes' pre-incubation of the potential inhibitory substances, the substrate is added to start the reaction, the formation of p-nitroaniline being taken as a measurement of the enzyme activity after 5 minutes, after testing the linearity.

Q: With `N=C(N)c1ccc(OCc2ccc(CN3CCC(C4CCN(Cc5ccc(COc6ccc(C(=N)N)cc6)cc5)CC4)CC3)cc2)cc1` [Example 64] as the compound, how does the IC50 read?
A: The IC50 was 1.1 nM.

Q: How did the IC50 turn out when `NCc1ccc(OCc2cccc(CNC3CCC(CC4CCC(NCc5cccc(COc6ccc(CN)cc6)c5)CC4)CC3)c2)cc1` (centres unmarked) [Example 19] was run?
A: Its IC50 is 10 nM.

Q: Which IC50 does the source give for `N=C(N)c1ccc(OCc2cccc(CNCCCCC(NCc3cccc(COc4ccc(C(=N)N)cc4)c3)C(=O)O)c2)cc1` (centres unmarked) [Example 32] here?
A: Its IC50 is 32.4 nM.

Q: With `N=C(N)c1ccc(OCc2cccc(CNCCCCCCNCc3cccc(COc4ccc(C(=N)N)cc4)c3)c2)cc1` [Example 25] as the compound, how does the IC50 read?
A: Its IC50 is 1.2 nM.

Q: For `N=C(N)c1ccc(OCc2cccc(CNCC3CCC(CNCc4cccc(COc5ccc(C(=N)N)cc5)c4)CC3)c2)cc1` (centres unmarked) [Example 26], which IC50 is on record?
A: Its IC50 is 0.8 nM.

Q: With `N=C(N)c1ccc(OCc2cccc(CNCCCCCCCNCc3cccc(COc4ccc(C(=N)N)cc4)c3)c2)cc1` [Example 23] as the compound, how does the IC50 read?
A: The IC50 was 1.1 nM.

Q: For `CN(Cc1ccc(CN(C)Cc2cccc(COc3ccc(CCN)cc3)c2)cc1)Cc1cccc(COc2ccc(CCN)cc2)c1` [Example 35], which IC50 is on record?
A: The IC50 was 31.6 nM.

Q: How did the IC50 turn out when `CC(C)(CCCCC(C)(C)NCc1cccc(COc2ccc(C(=N)N)cc2)c1)NCc1cccc(COc2ccc(C(=N)N)cc2)c1` [Example 33] was run?
A: The IC50 was 2.5 nM.

Q: How did the IC50 turn out when `N=C(N)c1ccc(OCc2cccc(CNCc3ccc(CNCc4cccc(COc5ccc(C(=N)N)cc5)c4)cc3)c2)cc1` [Example 29] was run?
A: The IC50 was 1.7 nM.

Q: `CC(C)(CCC(C)(C)NCc1cccc(COc2ccc(CN)cc2)c1)NCc1cccc(COc2ccc(CN)cc2)c1` [Example 14] was tested. Which IC50 did it give?
A: Its IC50 is 13 nM.

Q: For `N=C(N)c1ccc(OCc2cccc(CNCCCCCNCc3cccc(COc4ccc(C(=N)N)cc4)c3)c2)cc1` [Example 17], which IC50 is on record?
A: Its IC50 is 1.4 nM.

Q: `N=C(N)c1ccc(OCc2cccc(COCc3ccc(COCc4cccc(COc5ccc(C(=N)N)cc5)c4)cc3)c2)cc1` [Example 56] was tested. Which IC50 did it give?
A: Its IC50 is 19 nM.

Q: With `NCCc1ccc(OCc2cccc(CN3CCC(C4CCN(Cc5cccc(COc6ccc(CCN)cc6)c5)CC4)CC3)c2)cc1` [Example 42] as the compound, how does the IC50 read?
A: The IC50 was 30.9 nM.

Q: For `N=C(N)c1ccc(OCc2cccc(CN3CCC(C4CCN(Cc5cccc(COc6ccc(C(=N)N)cc6)c5)CC4)CC3)c2)cc1` [Example 34], which IC50 is on record?
A: Its IC50 is 0.8 nM.

Q: With `CN(CCCCCCN(C)Cc1cccc(COc2ccc(CN)cc2)c1)Cc1cccc(COc2ccc(CN)cc2)c1` [Example 31] as the compound, how does the IC50 read?
A: The IC50 was 13 nM.

Q: How did the IC50 turn out when `NCc1ccc(OCc2cccc(CNCc3ccc(CNCc4cccc(COc5ccc(CN)cc5)c4)cc3)c2)cc1` [Example 16] was run?
A: The IC50 was 12 nM.

Q: For `NCc1ccc(OCc2cccc(CNCC3CCCC(CNCc4cccc(COc5ccc(CN)cc5)c4)C3)c2)cc1` (centres unmarked) [Example 20], which IC50 is on record?
A: Its IC50 is 7.1 nM.

Q: With `NCc1ccc(OCc2cccc(CNCC3CCC(CNCc4cccc(COc5ccc(CN)cc5)c4)CC3)c2)cc1` (centres unmarked) [Example 11] as the compound, how does the IC50 read?
A: Its IC50 is 4 nM.

Q: `CCCCN(CCCCCCN(CCCC)Cc1cccc(COc2ccc(C(=N)N)cc2)c1)Cc1cccc(COc2ccc(C(=N)N)cc2)c1` [Example 30] was tested. Which IC50 did it give?
A: The IC50 was 6.8 nM.

Q: How did the IC50 turn out when `CC1(NCc2cccc(COc3ccc(CN)cc3)c2)CCC(C(C)(C)NCc2cccc(COc3ccc(CN)cc3)c2)CC1` (centres unmarked) [Example 18] was run?
A: Its IC50 is 10.7 nM.

Q: `N=C(N)c1ccc(OCc2ccc(CNCCCCCCNCc3ccc(COc4ccc(C(=N)N)cc4)cc3)cc2)cc1` [Example 63] was tested. Which IC50 did it give?
A: Its IC50 is 0.74 nM.

Q: Which IC50 does the source give for `N=C(N)c1ccc(OCc2ccc(CNCc3ccc(CNCc4ccc(COc5ccc(C(=N)N)cc5)cc4)cc3)cc2)cc1` [Example 65] here?
A: The IC50 was 0.59 nM.

Q: Which IC50 does the source give for `NCc1ccc(OCc2cccc(CNCCc3cccc(NCc4cccc(COc5ccc(CN)cc5)c4)c3)c2)cc1` [Example 10] here?
A: The IC50 was 35 nM.

Q: `NCc1ccc(OCc2cccc(CN3CCC(C4CCN(Cc5cccc(COc6ccc(CN)cc6)c5)CC4)CC3)c2)cc1` [Example 68] was tested. Which IC50 did it give?
A: The IC50 was 2.5 nM.

Q: With `NCc1ccc(OCc2cccc(CNCc3cccc(CNCc4cccc(COc5ccc(CN)cc5)c4)c3)c2)cc1` [Example 15] as the compound, how does the IC50 read?
A: Its IC50 is 23 nM.

Q: With `CC1(NCc2cccc(COc3ccc(C(=N)N)cc3)c2)CCC(C(C)(C)NCc2cccc(COc3ccc(C(=N)N)cc3)c2)CC1` (centres unmarked) [Example 40] as the compound, how does the IC50 read?
A: The IC50 was 5 nM.

Q: With `CN(CCCCCCN(C)Cc1cccc(COc2ccc(C(=N)N)cc2)c1)Cc1cccc(COc2ccc(C(=N)N)cc2)c1` [Example 24] as the compound, how does the IC50 read?
A: The IC50 was 3.1 nM.

Q: For `N=C(N)c1ccc(OCc2cccc(CN(Cc3ccc(CN(Cc4cccc(COc5ccc(C(=N)N)cc5)c4)C4CC4)cc3)C3CC3)c2)cc1` [Example 62], which IC50 is on record?
A: Its IC50 is 41 nM.

Q: How did the IC50 turn out when `N=C(N)c1ccc(OCc2cccc(CNCc3cccc(CNCc4cccc(COc5ccc(C(=N)N)cc5)c4)c3)c2)cc1` [Example 28] was run?
A: The IC50 was 5.3 nM.

Q: `CC(C)(CCC(C)(C)NCc1cccc(COc2ccc(C(=N)N)cc2)c1)NCc1cccc(COc2ccc(C(=N)N)cc2)c1` [Example 27] was tested. Which IC50 did it give?
A: The IC50 was 1.7 nM.

Q: `NCc1ccc(OCc2cccc(CNCCCCCNCc3cccc(COc4ccc(CN)cc4)c3)c2)cc1` [Example 7] was tested. Which IC50 did it give?
A: The IC50 was 4.3 nM.

Q: For `N=C(N)c1ccc(OCc2cccc(CNCCOCCNCc3cccc(COc4ccc(C(=N)N)cc4)c3)c2)cc1` [Example 39], which IC50 is on record?
A: Its IC50 is 12 nM.
